Assay results reported in patent US20240108578A1, “COMPOSITION IN WHICH ABSORBABILITY OF POORLY ABSORBABLE DRUG IS IMPROVED” (MEDRx Co., Ltd., priority 2021, published 2024).

Assay: Dissolution of drug in ionic liquid checked under a microscope
Assay type: physicochemical
Details: 1.4 mg in 0.5 mL ionic liquid formulation, heated at 65° C. for 10 minutes
Protocol: According to the method of Example 1, the preparations of Examples 1, 4 and 5 comprising Lixisenatide as poorly absorbable drug were prepared. Specifically, the ingredients were mixed in the amounts (molar ratios) shown in the above Table 1 to prepare each ionic liquid formulation. Lixisenatide (1.4 mg) was added into the prepared ionic liquid formulation (0.5 mL) and the mixture was heated and dissolved at 65° C. for 10 minutes to prepare each preparation.
When Lixisenatide was mixed with an ionic liquid and checked the state under a microscope, it was determined that Lixisenatide was dissolved because the crystal of Lixisenatide disappeared by heating.
According to the method of Example 1, the preparations of Preparation Examples 1 to 3 and 22 to 23 comprising Lixisenatide as poorly absorbable drug were prepared. Specifically, the ingredients were mixed in the amounts (molar ratios) shown in Table 2 below to prepare each ionic liquid formulation, Semaglutide (1.4 mg) was added into the prepared ionic liquid formulation (0.5 mL), and the mixture was heated and dissolved at 65° C. for 10 minutes to prepare each preparation.
When Semaglutide was mixed with an ionic liquid and checked the state under a microscope, it was determined that Semaglutide was dissolved because the crystal of Semaglutide disappeared by heating.

Row | Substance | state of the drug mixed with an ionic liquid under a microscope
1 | Semaglutide | dissolved
2 | Lixisenatide | dissolved
